According to patent US20250179059A1 (The Regents of the University of California, priority 2021, published 2025):

How the values were obtained:
[1] = biological target: T1, human BRD4 bromodomain II (Homo sapiens, UniProt O60885); assay: Bromodomain binding assay (AlphaScreen), BRD4 BDII; details: AlphaScreen assay, Table C2; read-out: BRD4 BDII IC50
T1 construct: human BRD4 bromodomain II [based on Genbank NM_058243, residues 349-460]; host or cells: E. coli
How it was run: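 First, His6-tagged BRD4 bromodomain (BDI residues 44-170 or BDII residues 349-460) is incubated with compound for 30 min at room temperature. Next the biotinylated H4 peptide is added for 30 min, then donor and acceptor beads, with 60 min in the dark before AlphaScreen reading and IC50 fitting.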

[2] = system: human SKM-1 acute myeloid leukemia cells; assay: SKM-1 antiproliferation cell-based assay (ATPlite); details: Homo sapiens, SKM-1, 96 h, SKM-1 antiproliferation assay, 4 days, Table C2
How it was run: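 Log-phase cells in RPMI 1640/15% FBS were seeded at 34722 cells/mL and exposed for 4 days to nine-concentration DMSO serial dilutions in triplicate. Viability was read as ATP luminescence (ATPlite 1step), and IC50 values came from variable-slope non-linear regression.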

IC50 [1] [nM] | GI50 [2] [nM] | Structure (SMILES)
1 to 10 | 30 to 300 | CN1CCN(c2ccc(-c3cccc(-c4ccnc(N5CCC(N)CC5)c4)c3O)cc2Cl)C1=O [Example 300, 1-(3′-(2-(4-aminopiperidin-1-yl)pyridin-4-yl)-3-chloro-2′-hydroxy-[1,1′-biphenyl]-4-yl)-3-methylimidazolidin-2-one]
1 to 10 | 30 to 300 | CN1CCN(c2ccc(-c3cccc(-c4ccnc(N5CCCC(N)C5)c4)c3O)cc2Cl)C1=O (centres unmarked) [Example 301, 1-(3′-(2-(3-aminopiperidin-1-yl)pyridin-4-yl)-3-chloro-2′-hydroxy-[1,1′-biphenyl]-4-yl)-3-methylimidazolidin-2-one]
10 to 100 | 300 to 3000 | CC(=O)Nc1ccc(-c2cccc(-c3cc(OCCN)nc(N4CCNCC4)c3)c2O)cc1F [Example 302, N-(3′-(2-(2-aminoethoxy)-6-(piperazin-l-yl)pyridin-4-yl)-3-fluoro-2′-hydroxy-[1,1′-biphenyl]-4-yl)acetamide]
> 100 | ≥ 3000 | O=C1CCC(=O)N1c1ccc(-c2cccc(-c3ccnc(N4CCNCC4)c3)c2O)cc1F [Example 303, 1-(3-fluoro-2′-hydroxy-3′-(2-(piperazin-1-yl)pyridin-4-yl)-[1,1′-biphenyl]-4-yl)pyrrolidine-2,5-dione]
10 to 100 | 300 to 3000 | CC(=O)Nc1ccc(-c2cccc(-c3ccnc(C#CCCN)c3)c2O)cc1F [Example 304, N-(3′-(2-(4-aminobut-1-yn-1-yl)pyridin-4-yl)-3-fluoro-2′-hydroxy-[1,1′-biphenyl]-4-yl)acetamide]
1 to 10 | 30 to 300 | CN1CCN(c2ccc(-c3cccc(-c4cncc(N5CCC(N)CC5)c4)c3O)cc2Cl)C1=O [Example 305, 1-(3′-(5-(4-aminopiperidin-1-yl)pyridin-3-yl)-3-chloro-2′-hydroxy-[1,1′-biphenyl]-4-yl)-3-methylimidazolidin-2-one]
1 to 10 | 30 to 300 | Cc1cc(-c2ccnc(N3CCNCC3)c2)c(O)c(-c2ccc(N3CCN(C)C3=O)c(Cl)c2)c1 [Example 306, l-(3-chloro-2′-hydroxy-5′-methyl-3′-(2-(piperazin-1-yl)pyridin-4-yl)-[1,1'-biphenyl]-4-yl)-3-methylimidazolidin-2-one]
> 100 | ≥ 3000 | O=C1CCCN1c1ccc(-c2c[nH]cc(-c3cccc(N4CCNCC4)c3)c2=O)cc1F [Example 307, 3-(3-fluoro-4-(2-oxopyrrolidin-1-yl)phenyl)-5-(3-(piperazin-1-yl)phenyl)pyridin-4(1H)-one]
1 to 10 | 30 to 300 | CN1CCN(c2ccc(-c3cccc(-c4ccc(C#N)c(N5CCNCC5)c4)c3O)cc2Cl)C1=O [Example 308, 3″-chloro-2′-hydroxy-4″-(3-methyl-2-oxoimidazolidin-1-y1)-3-(piperazin-1-yl)-[1,1′:3′,1″-terphenyl]-4-carbonitrile]
10 to 100 | ≥ 3000 | CN1CCN(c2ccc(-c3cc(OC(F)(F)F)cc(-c4ccnc(N5CCNCC5)c4)c3O)cc2Cl)C1=O [Example 309, l-(3-chloro-2′-hydroxy-3′-(2-(piperazin-l-yl)pyridin-4-yl)-5′-(trifluoromethoxy)-[1,1′-biphenyl]-4-yl)-3-methylimidazolidin-2-one]
> 100 | 300 to 3000 | CN1CCN(c2ccc(-c3cc(C(C)(C)C)cc(-c4ccnc(N5CCNCC5)c4)c3O)cc2Cl)C1=O [Example 310, 1-(5′-(tert-butyl)-3-chloro-2′-hydroxy-3′-(2-(piperazin-1-yl)pyridin-4-yl)-[1,1′-biphenyl]-4-yl)-3-methylimidazolidin-2-one]
1 to 10 | 300 to 3000 | CCc1cc(-c2ccnc(N3CCNCC3)c2)c(O)c(-c2ccc(N3CCN(C)C3=O)c(Cl)c2)c1 [Example 311, l-(3-chloro-5′-ethyl-2′-hydroxy-3′-(2-(piperazin-1-yl)pyridin-4-yl)-[1,1′-biphenyl]-4-yl)-3-methylimidazolidin-2-one]
1 to 10 | 30 to 300 | COc1cc(-c2ccnc(N3CCNCC3)c2)c(O)c(-c2ccc(N3CCN(C)C3=O)c(Cl)c2)c1 [Example 312, l-(3-chloro-2′-hydroxy-5′-methoxy-3′-(2-(piperazin-1-yl)pyridin-4-yl)-[1,1′-biphenyl]-4-yl)-3-methylimidazolidin-2-one]
> 100 | ≥ 3000 | CC(=O)Nc1ccc(-c2cccc(-c3cc(C#N)nc(N4CCNCC4)c3)c2O)cc1F [Example 313, N-(3′-(2-cyano-6-(piperazin-1-yl)pyridin-4-yl)-3-fluoro-2′-hydroxy-[1,1′-biphenyl]-4-yl)acetamide]
> 100 | ≥ 3000 | CN1CCN(c2ccc(-c3cc(C#N)cc(-c4ccnc(N5CCNCC5)c4)c3O)cc2Cl)C1=O [Example 314, 3′-chloro-6-hydroxy-4′-(3-methyl-2-oxoimidazolidin-1-yl)-5-(2-(piperazin-1-yl)pyridin-4-yl)-[1,1′-biphenyl]-3-carbonitrile]
10 to 100 | 300 to 3000 | CC(C)c1cc(-c2ccnc(N3CCNCC3)c2)c(O)c(-c2ccc(N3CCN(C)C3=O)c(Cl)c2)c1 [Example 315, l-(3-chloro-2′-hydroxy-5′-isopropyl-3′-(2-(piperazin-1-yl)pyridin-4-yl)-[1,1-biphenyl]-4-yl)-3-methylimidazolidin-2-one]
1 to 10 | 300 to 3000 | CN1CCN(c2ccc(-c3cc(C4CC4)cc(-c4ccnc(N5CCNCC5)c4)c3O)cc2Cl)C1=O [Example 316, 1-(3-chloro-5′-cyclopropyl-2′-hydroxy-3′-(2-(piperazin-1-yl)pyridin-4-yl)-[1,1′-biphenyl]-4-yl)-3-methylimidazolidin-2-one]
1 to 10 | 30 to 300 | CN1CCN(c2ccc(-c3cccc(-c4ccc(CO)c(N5CCNCC5)c4)c3O)cc2Cl)C1=O [Example 317, 1-(3-chloro-2′-hydroxy-4″-(hydroxymethyl)-3″-(piperazin-1-yl)-[1,1′:3′,1″-terphenyl]-4-yl)-3-methylimidazolidin-2-one]
> 100 | 300 to 3000 | CN1CCN(c2ccc(-c3cc(-c4ccccc4)cc(-c4ccnc(N5CCNCC5)c4)c3O)cc2Cl)C1=O [Example 318, 1-(3-chloro-6′-hydroxy-5′-(2-(piperazin-1-yl)pyridin-4-yl)-[1,1′:3′,1″-terphenyl]-4-yl)-3-methylimidazolidin-2-one]
1 to 10 | 300 to 3000 | CN1CCN(c2ccc(-c3cccc(-c4ccc(CN)c(N5CCNCC5)c4)c3O)cc2Cl)C1=O [Example 319, 1-(4″-(aminomethyl)-3-chloro-2′-hydroxy-3″-(piperazin-1-yl)-[1,1′:3′,1″-terphenyl]-4-yl)-3-methylimidazolidin-2-one]
1 to 10 | 30 to 300 | CC(=O)NCc1ccc(-c2cccc(-c3ccc(N4CCN(C)C4=O)c(Cl)c3)c2O)cc1N1CCNCC1 [Example 320, N-((3″-chloro-2′-hydroxy-4″-(3-methyl-2-oxoimidazolidin-1-yl)-3-(piperazin-1-yl)-[1,1′:3′,1″-terphenyl]-4-yl)methyl)acetamide]
10 to 100 | 30 to 300 | CC(=O)Nc1ccc(-c2cc(F)cc(-c3ccnc(N4CC5(CNC5)C4)c3)c2O)cc1F [Example 321, N-(3′-(2-(2,6-diazaspiro[3.3]heptan-2-yl)pyridin-4-yl)-3,5′-difluoro-2′-hydroxy-[1,1′-biphenyl]-4-yl)acetamide]
10 to 100 | 30 to 300 | CN1CCN(c2ccc(-c3cccc(-c4ccnc(N5CC6(CNC6)C5)c4)c3O)cc2F)C1=O [Example 322, 1-(3′-(2-(2,6-diazaspiro[3.3]heptan-2-yl)pyridin-4-yl)-3-fluoro-2′-hydroxy-[1,1′-biphenyl]-4-yl)-3-methylimidazolidin-2-one]
1 to 10 | 30 to 300 | CN1CCN(c2ccc(-c3cccc(-c4ccnc(N5CC6(CNC6)C5)c4)c3O)cc2Cl)C1=O [Example 323, 1-(3′-(2-(2,6-diazaspiro[3.3]heptan-2-yl)pyridin-4-yl)-3-chloro-2′-hydroxy-[1,1′-biphenyl]-4-yl)-3-methylimidazolidin-2-one]
10 to 100 | 300 to 3000 | O=C1CCCN1c1ccc(-c2cc(F)cc(-c3ccnc(N4CC5(CNC5)C4)c3)c2O)cc1Cl [Example 324, 1-(3′-(2-(2,6-diazaspiro[3.3]heptan-2-yl)pyridin-4-yl)-3-chloro-5′-fluoro-2′-hydroxy-[1,1′-biphenyl]-4-yl)pyrrolidin-2-one]
1 to 10 | 30 to 300 | CN1CCN(c2ccc(-c3cccc(-c4cncc(N5CCCC(N)C5)c4)c3O)cc2Cl)C1=O (centres unmarked) [Example 325, 1-(3′-(5-(3-aminopiperidin-1-yl)pyridin-3-yl)-3-chloro-2′-hydroxy-[1,1′-biphenyl]-4-yl)-3-methylimidazolidin-2-one]
10 to 100 | 300 to 3000 | CN1CCN(c2ccc(-c3cccc(-c4cc(CN)cc(N5CCNCC5)c4)c3O)cc2Cl)C1=O [Example 326, 1-(3″-(aminomethyl)-3-chloro-2′-hydroxy-5″-(piperazin-1-yl)-[1,1′:3′,1″-terphenyl]-4-yl)-3-methylimidazolidin-2-one]
1 to 10 | 30 to 300 | CC(=O)NCc1cc(-c2cccc(-c3ccc(N4CCN(C)C4=O)c(Cl)c3)c2O)cc(N2CCNCC2)c1 [Example 327, N-((3″-chloro-2′-hydroxy-4″-(3-methyl-2-oxoimidazolidin-1-yl)-5-(piperazin-1-yl)-[1,1′:3′,1″-terphenyl]-3-yl)methyl)acetamide]
